What all share (assay): KINOMEscan
What all share (type): binding
Holding throughout (conditions): read-out: % control activity remaining

For the assay “PIK3CA(E542K)”, the target named is T1, PIK3CA(E542K (Homo sapiens, UniProt P42336, E542K)).
T1 construct: purchased Eurofins DiscoverX KINOMEscan

Another assay concerns the target T2, JNK2 (Homo sapiens, UniProt P45984).
T2 construct: purchased Eurofins DiscoverX KINOMEscan

A further assay addresses T3, AURKC (Homo sapiens, UniProt Q9UQB9).
T3 construct: purchased Eurofins DiscoverX KINOMEscan
T3 sequence (Q9UQB9 1-309): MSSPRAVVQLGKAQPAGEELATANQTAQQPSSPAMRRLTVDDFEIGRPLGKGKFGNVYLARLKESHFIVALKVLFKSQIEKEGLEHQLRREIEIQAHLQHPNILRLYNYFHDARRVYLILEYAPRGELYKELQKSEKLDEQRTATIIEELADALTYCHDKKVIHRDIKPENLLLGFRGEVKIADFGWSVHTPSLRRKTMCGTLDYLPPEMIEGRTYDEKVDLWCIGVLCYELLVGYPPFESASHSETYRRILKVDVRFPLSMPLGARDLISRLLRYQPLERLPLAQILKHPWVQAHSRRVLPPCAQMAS

Another assay deals with T4, NEK4 (Homo sapiens, UniProt P51957).
T4 construct: purchased Eurofins DiscoverX KINOMEscan
T4 sequence (P51957 whole entry): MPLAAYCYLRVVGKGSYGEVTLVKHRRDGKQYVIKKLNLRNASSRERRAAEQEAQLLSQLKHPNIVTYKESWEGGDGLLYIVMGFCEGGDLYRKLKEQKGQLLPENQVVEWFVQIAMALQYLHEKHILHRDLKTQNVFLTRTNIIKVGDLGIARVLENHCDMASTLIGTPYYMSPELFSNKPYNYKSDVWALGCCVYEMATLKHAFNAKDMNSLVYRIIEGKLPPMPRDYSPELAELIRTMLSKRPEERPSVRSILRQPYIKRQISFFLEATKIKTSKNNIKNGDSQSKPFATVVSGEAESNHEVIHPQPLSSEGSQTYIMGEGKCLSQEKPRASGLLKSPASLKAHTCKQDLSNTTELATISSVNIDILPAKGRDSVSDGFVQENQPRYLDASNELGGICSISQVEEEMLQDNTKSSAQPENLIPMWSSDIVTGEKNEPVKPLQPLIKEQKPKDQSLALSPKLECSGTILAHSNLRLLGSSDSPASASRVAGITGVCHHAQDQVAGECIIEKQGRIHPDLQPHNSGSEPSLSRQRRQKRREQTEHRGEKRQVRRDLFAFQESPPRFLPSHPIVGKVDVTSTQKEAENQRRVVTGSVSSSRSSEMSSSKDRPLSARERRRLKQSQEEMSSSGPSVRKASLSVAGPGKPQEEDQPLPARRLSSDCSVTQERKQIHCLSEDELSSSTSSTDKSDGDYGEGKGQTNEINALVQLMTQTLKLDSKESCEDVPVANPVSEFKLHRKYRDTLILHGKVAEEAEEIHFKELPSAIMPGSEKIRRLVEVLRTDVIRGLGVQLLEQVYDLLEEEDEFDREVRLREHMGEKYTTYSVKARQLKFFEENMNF

The next assay addresses T5, ULK3 (Homo sapiens, UniProt Q6PHR2).
T5 construct: purchased Eurofins DiscoverX KINOMEscan
T5 sequence (Q6PHR2 1-472): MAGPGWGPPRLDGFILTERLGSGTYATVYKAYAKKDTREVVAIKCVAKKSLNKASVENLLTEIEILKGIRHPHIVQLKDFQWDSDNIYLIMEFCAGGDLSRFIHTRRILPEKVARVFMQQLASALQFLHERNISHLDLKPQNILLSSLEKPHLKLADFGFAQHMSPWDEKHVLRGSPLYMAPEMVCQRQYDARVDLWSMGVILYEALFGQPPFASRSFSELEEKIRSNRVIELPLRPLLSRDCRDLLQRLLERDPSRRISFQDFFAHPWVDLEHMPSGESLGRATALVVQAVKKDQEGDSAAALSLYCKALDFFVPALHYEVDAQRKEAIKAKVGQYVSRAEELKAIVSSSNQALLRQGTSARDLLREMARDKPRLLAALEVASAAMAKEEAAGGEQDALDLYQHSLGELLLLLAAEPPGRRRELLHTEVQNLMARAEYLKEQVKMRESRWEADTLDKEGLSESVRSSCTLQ

A further assay concerns the target T6, CDK4-cyclinD1 (Homo sapiens, UniProt P11802).
T6 construct: purchased Eurofins DiscoverX KINOMEscan

For another assay, the target named is T7, DLK (Homo sapiens, UniProt Q12852).
T7 construct: purchased Eurofins DiscoverX KINOMEscan
T7 sequence (Q12852 1-859): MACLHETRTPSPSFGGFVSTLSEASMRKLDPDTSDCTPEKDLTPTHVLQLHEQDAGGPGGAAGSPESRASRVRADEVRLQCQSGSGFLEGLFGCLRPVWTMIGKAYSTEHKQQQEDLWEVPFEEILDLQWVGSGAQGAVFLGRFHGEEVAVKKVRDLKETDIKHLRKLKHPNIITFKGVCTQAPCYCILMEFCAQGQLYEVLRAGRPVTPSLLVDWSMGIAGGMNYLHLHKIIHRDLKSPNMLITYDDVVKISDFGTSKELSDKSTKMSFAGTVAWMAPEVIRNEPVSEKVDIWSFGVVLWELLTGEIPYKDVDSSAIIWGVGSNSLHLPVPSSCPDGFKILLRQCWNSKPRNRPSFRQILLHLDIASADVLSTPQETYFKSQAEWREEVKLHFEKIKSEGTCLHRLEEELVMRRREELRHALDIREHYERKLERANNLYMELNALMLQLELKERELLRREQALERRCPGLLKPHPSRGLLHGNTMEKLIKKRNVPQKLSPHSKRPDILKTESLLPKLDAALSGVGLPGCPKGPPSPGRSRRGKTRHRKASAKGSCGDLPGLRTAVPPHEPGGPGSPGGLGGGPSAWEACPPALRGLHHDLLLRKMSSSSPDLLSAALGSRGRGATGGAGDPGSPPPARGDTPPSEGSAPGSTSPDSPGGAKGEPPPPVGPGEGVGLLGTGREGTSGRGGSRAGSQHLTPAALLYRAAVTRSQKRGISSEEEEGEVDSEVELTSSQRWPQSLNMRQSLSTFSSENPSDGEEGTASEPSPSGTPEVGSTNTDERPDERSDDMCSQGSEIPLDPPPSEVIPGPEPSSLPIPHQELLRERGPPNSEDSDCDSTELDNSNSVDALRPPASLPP

Another assay deals with T8, SRPK2 (Homo sapiens, UniProt P78362).
T8 construct: purchased Eurofins DiscoverX KINOMEscan
T8 sequence (P78362 whole entry): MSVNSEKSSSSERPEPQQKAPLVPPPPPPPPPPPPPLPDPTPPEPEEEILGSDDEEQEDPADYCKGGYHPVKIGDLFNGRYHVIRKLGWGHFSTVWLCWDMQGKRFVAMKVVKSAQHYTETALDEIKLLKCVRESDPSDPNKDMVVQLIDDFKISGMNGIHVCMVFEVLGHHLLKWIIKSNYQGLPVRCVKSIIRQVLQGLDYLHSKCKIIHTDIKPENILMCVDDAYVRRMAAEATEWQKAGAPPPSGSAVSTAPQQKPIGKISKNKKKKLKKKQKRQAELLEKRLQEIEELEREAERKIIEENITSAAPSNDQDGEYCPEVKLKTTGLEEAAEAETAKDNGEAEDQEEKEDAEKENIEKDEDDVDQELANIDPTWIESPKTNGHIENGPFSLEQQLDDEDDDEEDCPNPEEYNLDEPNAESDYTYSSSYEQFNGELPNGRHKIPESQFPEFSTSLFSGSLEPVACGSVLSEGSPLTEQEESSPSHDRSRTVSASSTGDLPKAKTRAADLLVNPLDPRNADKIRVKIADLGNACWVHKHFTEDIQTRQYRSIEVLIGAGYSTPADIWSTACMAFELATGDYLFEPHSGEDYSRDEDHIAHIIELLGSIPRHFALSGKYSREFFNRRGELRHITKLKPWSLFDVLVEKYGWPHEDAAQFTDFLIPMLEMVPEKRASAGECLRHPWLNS

The next assay addresses T9, PRKD3 (Homo sapiens, UniProt O94806).
T9 construct: purchased Eurofins DiscoverX KINOMEscan
T9 sequence (O94806 1-890): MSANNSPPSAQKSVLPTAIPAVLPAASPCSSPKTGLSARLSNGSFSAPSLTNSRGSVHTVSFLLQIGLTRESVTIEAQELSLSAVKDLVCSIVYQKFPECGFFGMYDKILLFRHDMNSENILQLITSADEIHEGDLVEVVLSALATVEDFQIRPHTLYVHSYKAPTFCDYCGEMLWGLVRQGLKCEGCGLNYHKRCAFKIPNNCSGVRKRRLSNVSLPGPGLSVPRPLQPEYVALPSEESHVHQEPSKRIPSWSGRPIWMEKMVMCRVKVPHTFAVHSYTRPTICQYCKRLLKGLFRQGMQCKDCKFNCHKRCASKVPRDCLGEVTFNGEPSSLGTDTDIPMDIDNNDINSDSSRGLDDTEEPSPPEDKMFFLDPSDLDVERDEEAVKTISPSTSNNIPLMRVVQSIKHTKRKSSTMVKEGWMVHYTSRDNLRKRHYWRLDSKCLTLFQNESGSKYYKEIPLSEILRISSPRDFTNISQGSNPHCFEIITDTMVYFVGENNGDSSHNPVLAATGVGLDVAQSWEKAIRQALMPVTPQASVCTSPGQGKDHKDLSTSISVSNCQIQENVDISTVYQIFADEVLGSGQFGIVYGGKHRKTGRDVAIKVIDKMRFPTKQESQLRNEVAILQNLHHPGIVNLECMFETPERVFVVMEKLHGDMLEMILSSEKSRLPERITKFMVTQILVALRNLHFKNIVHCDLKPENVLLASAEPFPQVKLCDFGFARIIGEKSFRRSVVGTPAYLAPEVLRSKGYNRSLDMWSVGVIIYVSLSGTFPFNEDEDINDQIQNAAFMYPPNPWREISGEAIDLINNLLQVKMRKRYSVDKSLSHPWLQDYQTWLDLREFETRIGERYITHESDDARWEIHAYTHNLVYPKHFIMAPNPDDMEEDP

In a further assay the target is T10, DAPK3 (Homo sapiens, UniProt O43293).
T10 construct: purchased Eurofins DiscoverX KINOMEscan
T10 sequence (O43293 whole entry): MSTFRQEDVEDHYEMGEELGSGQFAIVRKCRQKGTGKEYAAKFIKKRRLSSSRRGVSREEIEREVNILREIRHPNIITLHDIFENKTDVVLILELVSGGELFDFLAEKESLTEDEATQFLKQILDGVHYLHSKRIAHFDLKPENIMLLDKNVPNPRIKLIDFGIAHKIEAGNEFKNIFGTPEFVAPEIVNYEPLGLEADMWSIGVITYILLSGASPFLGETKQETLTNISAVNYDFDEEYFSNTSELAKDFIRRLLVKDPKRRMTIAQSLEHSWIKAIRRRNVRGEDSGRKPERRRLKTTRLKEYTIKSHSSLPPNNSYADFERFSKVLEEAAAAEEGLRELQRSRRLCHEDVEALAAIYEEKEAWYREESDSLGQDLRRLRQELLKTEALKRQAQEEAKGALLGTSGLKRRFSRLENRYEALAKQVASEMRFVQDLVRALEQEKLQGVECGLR

T6 sequence (P11802 whole entry): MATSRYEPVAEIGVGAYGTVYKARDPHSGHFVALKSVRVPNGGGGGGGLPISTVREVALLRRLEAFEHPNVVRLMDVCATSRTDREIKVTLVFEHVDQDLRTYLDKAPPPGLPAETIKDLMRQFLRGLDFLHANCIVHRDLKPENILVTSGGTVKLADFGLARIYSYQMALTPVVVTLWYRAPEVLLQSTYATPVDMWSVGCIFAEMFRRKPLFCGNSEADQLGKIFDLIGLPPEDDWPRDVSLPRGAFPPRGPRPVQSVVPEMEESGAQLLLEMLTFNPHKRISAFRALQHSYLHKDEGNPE
T6 sequence (P24385 whole entry partner): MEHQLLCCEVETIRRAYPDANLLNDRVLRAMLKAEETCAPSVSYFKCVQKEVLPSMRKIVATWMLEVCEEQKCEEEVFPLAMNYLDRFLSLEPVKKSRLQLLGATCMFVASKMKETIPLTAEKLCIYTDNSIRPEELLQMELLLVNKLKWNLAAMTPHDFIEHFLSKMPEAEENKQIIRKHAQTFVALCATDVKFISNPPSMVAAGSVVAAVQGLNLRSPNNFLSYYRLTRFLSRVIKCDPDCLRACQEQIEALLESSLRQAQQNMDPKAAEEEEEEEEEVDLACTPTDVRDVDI
T2 sequence (P45984 whole entry): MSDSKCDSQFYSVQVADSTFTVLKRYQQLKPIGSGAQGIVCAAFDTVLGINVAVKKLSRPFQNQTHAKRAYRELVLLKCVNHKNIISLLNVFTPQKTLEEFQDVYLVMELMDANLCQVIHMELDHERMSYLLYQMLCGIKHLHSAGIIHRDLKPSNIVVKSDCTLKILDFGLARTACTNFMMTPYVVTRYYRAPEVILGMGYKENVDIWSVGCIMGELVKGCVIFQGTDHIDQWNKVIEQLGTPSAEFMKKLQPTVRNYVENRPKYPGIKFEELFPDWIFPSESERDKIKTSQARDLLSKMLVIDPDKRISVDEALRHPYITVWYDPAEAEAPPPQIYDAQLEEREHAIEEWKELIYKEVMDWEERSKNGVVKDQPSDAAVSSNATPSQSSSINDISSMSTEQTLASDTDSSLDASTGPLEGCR
T1 sequence (P42336 whole entry E542K): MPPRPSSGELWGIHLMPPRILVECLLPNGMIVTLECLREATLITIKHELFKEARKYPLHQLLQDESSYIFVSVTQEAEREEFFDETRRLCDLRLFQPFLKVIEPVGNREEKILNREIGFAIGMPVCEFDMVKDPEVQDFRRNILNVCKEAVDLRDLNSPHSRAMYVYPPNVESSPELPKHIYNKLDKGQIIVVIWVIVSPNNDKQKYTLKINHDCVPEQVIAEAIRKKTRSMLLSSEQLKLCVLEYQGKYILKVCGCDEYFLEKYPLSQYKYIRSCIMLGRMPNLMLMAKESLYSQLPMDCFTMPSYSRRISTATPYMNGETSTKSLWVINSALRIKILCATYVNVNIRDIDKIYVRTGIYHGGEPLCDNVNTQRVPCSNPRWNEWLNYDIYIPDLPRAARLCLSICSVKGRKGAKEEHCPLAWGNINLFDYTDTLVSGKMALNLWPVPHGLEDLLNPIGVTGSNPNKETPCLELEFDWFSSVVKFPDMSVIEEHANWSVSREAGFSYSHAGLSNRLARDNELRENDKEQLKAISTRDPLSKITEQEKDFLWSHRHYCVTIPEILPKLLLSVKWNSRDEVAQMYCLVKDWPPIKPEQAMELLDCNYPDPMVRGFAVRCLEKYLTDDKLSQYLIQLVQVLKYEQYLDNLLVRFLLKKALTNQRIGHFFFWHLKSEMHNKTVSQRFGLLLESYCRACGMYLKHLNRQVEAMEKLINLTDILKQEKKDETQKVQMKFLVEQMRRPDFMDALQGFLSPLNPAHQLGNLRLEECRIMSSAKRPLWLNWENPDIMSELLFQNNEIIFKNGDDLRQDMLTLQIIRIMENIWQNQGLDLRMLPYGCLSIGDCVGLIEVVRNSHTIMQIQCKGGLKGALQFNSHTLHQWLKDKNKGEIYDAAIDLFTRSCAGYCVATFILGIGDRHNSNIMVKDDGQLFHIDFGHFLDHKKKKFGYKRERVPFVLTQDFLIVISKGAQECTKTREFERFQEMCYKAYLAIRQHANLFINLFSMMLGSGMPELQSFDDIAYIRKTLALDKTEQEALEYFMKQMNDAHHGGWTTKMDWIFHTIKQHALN

As to `Clc1cc(NCC2CC2)c2ncc(-c3ccc4[nH]ncc4c3)n2n1` [compound 2, 6-Chloro-N-(cyclopropylmethyl)-3-(1H-indazol-5-yl)imidazo[1,2-b]pyridazin-8-amine], the remaining binding at 1 µM on PIK3CA(E542K) turned out to be 72%; at JNK2, 91%; on AURKC it was 92%; on NEK4, 99%; at ULK3 it was 78%; at CDK4-cyclinD1 it was 88%. The remaining binding at 1 µM came to 89% at DLK, 73% on SRPK2, 98% on PRKD3 and 85% on DAPK3.
On to `O=C(CN1CCOCC1)N[C@H]1CC[C@H](Nc2cc(Cl)nn3c(-c4ccc5[nH]ncc5c4)cnc23)CC1` [compound 26], for which the remaining binding at 1 µM at PIK3CA(E542K) stood at 93%; at JNK2, 80%; on AURKC it was 58%; at NEK4, 100%; on ULK3, 95%; on CDK4-cyclinD1, 93%. The remaining binding at 1 µM was 83% on DLK, 79% at SRPK2, 94% at PRKD3 and 34% at DAPK3.
With `CN1CCC(CNc2cc(Cl)nn3c(-c4cc5nc(Nc6ccccc6)[nH]c5cc4F)cnc23)CC1` [compound 31, 6-Chloro-3-(6-fluoro-2-(phenylamino)-1H-benzo[d]imidazol-5-yl)-N-((1-methylpiperidin-4-yl)methyl)imidazo[1,2-b]pyridazin-8-amine], the remaining binding at 1 µM at PIK3CA(E542K) came out at 65%; on JNK2, 75%; on AURKC it was 92%; at NEK4, 95%; on ULK3, 68%; at CDK4-cyclinD1, 87%. Also, the remaining binding at 1 µM on DLK came out at 100%; on SRPK2 it was 93%; on PRKD3, 100%; on DAPK3 it was 84%.

For the origin of these results see paper PMC6437697 (Journal of Medicinal Chemistry, 2019).
